Test results: ChEMBL document CHEMBL1131563, “Effects of alpha- and beta-galactosylated C2-ceramides on the immune system” (J Med Chem, 1998)

Key:
[1] = organism: Mus musculus; experiment: Concentration at which compound induced concentration-dependent stimulation of the MLR responses in murine spleen cells; range = 80 ng/mL to 2 ug/mL; format: functional, cell-based
[2] = organism: Mus musculus; experiment: Concentration at which compound suppressed the MLR response (mixed leukocyte reaction) in murine spleen cells; range = 80 ng/mL to 2 ug/mL; format: functional, cell-based

Row | Structure (SMILES) | Concentration [1] [µg/mL] | Concentration [2] [µg/mL]
1 | CCCCCCCCCCCCC/C=C/[C@@H](O)[C@H](CO[C@@H]1O[C@@H](CO)[C@H](O)[C@H](O)[C@@H]1O)NC(C)=O | 2 | 
2 | CCCCCCCCCCCCC/C=C/[C@@H](O)[C@H](CO)NC(C)=O |  | 2
